The values that follow come from US20210196779A1, “Compositions and Methods for Treating Steroid Hormone-Related Diseases or Disorders” (YALE UNIVERSITY, priority 2018, published 2021).

The subject of assay [1] is Poly[ADP-ribose] polymerase-1 (PARP-1). The experiment in a line: Western blot, MCF7 cells, PARP-1. It is filed as cell-based. The conditions noted are these: 24 h. As for the experimental part: Western blot analysis was used to determine the protein expression using protein specific antibodies.
Total cell lysis was conducted using 2×SDS sample buffer (62.5 mM Tris-HCl, 2% SDS, 10% glycerol, 50 mM DTT, and 0.05% bromophenol blue). The samples were sonicated for 10 s to shear DNA. Cell nuclei were isolated using Tris buffer saline with 0.4% NP40. Cell extracts were then electrophoresed through 10% SDS-polyacrylamide gels and transferred to 0.2 μm nitrocellulose membranes (Bio-Rad Laboratories, Hercules, Calif.) with a Miniprotein II transferring apparatus (Bio-Rad). The membranes were blocked and probed in TBS-T buffer (1×TBS buffer, 0.2% Tween 20) containing 5% non-fat milk. Monoclonal rabbit anti-AR (1:5000), was used to detect androgen receptor (Abcam #133273), Glucocorticoid Receptor (D8H2) XP® Rabbit mAb #3660, ERa Antibody (F-10): sc-8002, BRD4 (E2A7X) Rabbit mAb #13440, Brd2 (D89B4) Rabbit mAb #5848, PARP (46D11) Rabbit mAb #9532, Acetyl-Histone H3 (Lys27) (D5E4) XP® Rabbit mAb #8173 and a monoclonal actin antibody diluted 1:2500 (Sigma, St. Louis, Mo.) was used to detect β-actin as the internal control to confirm equal protein loading. […] Enhanced chemiluminescence reagents (Perkin-Elmer Life Science Products, Boston, Mass.) were used to visualize the immunoreactive bands and the densities of protein bands were scanned analyzed using ImageJ software from the NIH.
On the technique in general: A western blot detects proteins with antibodies after separation by electrophoresis.

The target of assay [2] is T1, GR (stimulated with DEX) (Homo sapiens, UniProt P04150).
T1 construct: expressed in transfected cells; host or cells: LNCaP (LNCaP-GR)
T1 sequence (P04150 whole entry): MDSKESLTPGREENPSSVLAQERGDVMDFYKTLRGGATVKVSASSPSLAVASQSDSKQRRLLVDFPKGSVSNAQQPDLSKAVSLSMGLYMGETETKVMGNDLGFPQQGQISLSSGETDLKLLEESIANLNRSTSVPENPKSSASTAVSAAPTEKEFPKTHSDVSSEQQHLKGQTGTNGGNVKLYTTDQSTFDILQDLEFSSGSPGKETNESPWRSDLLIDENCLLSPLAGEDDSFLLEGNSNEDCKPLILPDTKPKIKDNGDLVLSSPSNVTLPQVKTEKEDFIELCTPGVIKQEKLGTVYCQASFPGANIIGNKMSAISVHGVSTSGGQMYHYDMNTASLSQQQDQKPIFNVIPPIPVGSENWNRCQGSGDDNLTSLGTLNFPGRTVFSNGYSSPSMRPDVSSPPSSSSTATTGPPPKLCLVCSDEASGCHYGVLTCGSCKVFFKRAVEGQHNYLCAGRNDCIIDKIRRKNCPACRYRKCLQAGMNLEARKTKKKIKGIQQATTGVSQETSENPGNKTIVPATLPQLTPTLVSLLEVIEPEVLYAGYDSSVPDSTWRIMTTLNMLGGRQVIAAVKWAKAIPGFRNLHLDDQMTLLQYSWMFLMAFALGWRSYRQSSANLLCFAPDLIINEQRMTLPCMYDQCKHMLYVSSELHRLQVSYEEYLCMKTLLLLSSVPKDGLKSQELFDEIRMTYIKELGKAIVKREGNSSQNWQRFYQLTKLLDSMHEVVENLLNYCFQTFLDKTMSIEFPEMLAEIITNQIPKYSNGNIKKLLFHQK
The experiment in a line: GR driven luciferase activity (DEX) in LNCaP-GR cells. The assay is classed as cell-based. Conditions: LNCaP-GR luciferase reporter cells. As to the method:
Both LNCaP and GR overexpressing LNCaP cells were carrying luciferase reporters with AR response elements.
(§1) Reporter cells were treated with herbal extracts at 30, 100, 300, and 1000 μg/ml for 24 h in a 37° C.-CO2 incubator. DHT (25 nM) was used to stimulate androgen receptor activity. Dexamethasone (50 nM) was used to stimulate glucocorticoid receptor activity Cells were lysed using luciferase lysis buffer after which luciferase buffer with luciferin was added to generate luminescence. Luminescence was recorded using a luminescence microplate reader.

Assay [3] deals with glucocorticoid receptor (GR) (Homo sapiens, UniProt P04150). Description: PSA-luciferase reporter assay, DEX induced, PC3 cells. More on the design: Western blot analysis for AR and GR protein expression in LNCaP, 22RV1 and PC3 cells; endogenous in cells; host or cells: PC3. The assay is classed as cell-based. As for the experimental part: as §1
Sequence of glucocorticoid receptor (GR) (P04150 whole entry): as above
In general terms: In a reporter assay the amount or activity of a reporter protein is the signal.

Assay [4] relates to MDAMB-231 cells. Description: Cell growth assay, MDAMB-231 breast cancer cells. It is filed as cell-based. The conditions noted are these: 4 days. As for the experimental part: (§2) MCF7, T47D, MDA-MB-453, MDA-MB-231 breast cancer cells were grown in corning T75 cell culture flask in RPMI1640 medium supplemented with 5% FBS, 50 μg/ml Kanamycin in a 37° C., 5% CO2 incubator.
(§3) 20,000 cells in 1 ml of medium (phenol red free RPMI1640, 5% charcoal-dialysis FBS, 50 μg/ml Kanamyacin) were seeded per well of a 24-well plate and incubated in a 37° C. incubator with 5% CO2 overnight. Different concentrations of herbal extract were added to each well in order to have final concentrations from 50 μg/ml to 500 μg/ml. For prostate cancer cells, DHT (25 nM) was used to stimulate androgen receptor activity. For glucocorticoid receptor overexpressed LNCaP cells, dexamethasone (50 nM) was used to stimulate glucocorticoid receptor activity. For all breast cancer cells, E2 (10 nM) was used to stimulate ER activity. Control medium without any steroid hormone was used as a control setting. After 4 days of incubation, cells were fixed and stained for 2 h with 0.5% methylene blue in 50% ethanol, followed by washing with tap water to remove unbound dye. Plates were air dried and then cells were dissolved in 1% sarkosyl (sodium lauroyl sarcosinate) by shaking at room temperature for 3 h. Cell growth was quantified based on the amount of methylene blue adsorbed by the cells as measured by a spectrophotometer (Molecular Devices) at 595 nm. […]

Assay [5] relates to SGK1 mRNA (target gene of GR). The experiment in a line: qRT-PCR of DEX induced SGK1 mRNA. It is filed as cell-based. The conditions noted are these: 22RV1 or PC3 cells. The source says: FIGS. 5D-5E are graphs showing the effect of Y1830, RG (or the fraction comprising RG), and RGA (or the fraction comprising RGA) on the DEX induced glucocorticoid receptor mediated transcriptional response of 22RV1 and PC3 PSA-luciferase reporter cells. FIGS. 5F-5G are graphs showing the effect of Y1830 on SGK1 (target gene of GR) mRNA expression with or without DEX using qRT-PCR.
RNA was extracted from herb treated cells using the Roche High Pure RNA isolation kit. cDNA was then generated from RNA samples using a Bio-rad iScript Advanced cDNA synthesis kit for RT-qPCR. qPCR was performed using human NRF2, H01, NQO1 and β-actin primers (Table 1) and iTaq™ Universal SYBR® Green Supermix in a CFX PCR machine (Bio-rad). Relative mRNA expression was calculated based on the change of the threshold cycle relative to the internal control, β-actin, using a standard curve generated by purified PCR products.
(In qPCR the cycle at which signal appears reflects the starting amount.)

Assay [6] concerns the target AR (stimulated with DHT) (Homo sapiens, UniProt P10275, T878A). Description: AR driven luciferase activity (DHT) in LNCaP / LNCaP-GR cells. Conditions: LNCaP / LNCaP-GR luciferase reporter cells.
Description: 22RV1 or LNCaP prostate cancer cells were used in the screening study. 22RV1 or LNCaP cell lines were stably transfected with PSA promoter-PGL4.2 luciferase reporter.
Reporter cells were treated with herbal extracts at 30, 100, 300, and 1000 μg/ml for 24 h in a 37° C.-CO2 incubator. […] Dexamethasone (50 nM) was used to stimulate glucocorticoid receptor activity Cells were lysed using luciferase lysis buffer after which luciferase buffer with luciferin was added to generate luminescence. Luminescence was recorded using a luminescence microplate reader.
For assay [7], the system named is MCF7 cells. The experiment in a line: Cell growth assay, MCF7 breast cancer cells. The assay is classed as cell-based. The conditions noted are these: in the presence or absence of E2, 4 days. As for the experimental part: as §2, §3
The test system of assay [8] is different prostate cell lines. The experiment in a line: Growth of different prostate cell lines, all conditions. The assay is classed as cell-based. Conditions: under all conditions, up to 500 ng/ml. As for the experimental part: 20,000 cells in 1 ml of medium (phenol red free RPMI1640, 5% charcoal-dialysis FBS, 50 μg/ml Kanamyacin) were seeded per well of a 24-well plate and incubated in a 37° C. incubator with 5% CO2 overnight. […] For prostate cancer cells, DHT (25 nM) was used to stimulate androgen receptor activity. For glucocorticoid receptor overexpressed LNCaP cells, dexamethasone (50 nM) was used to stimulate glucocorticoid receptor activity. For all breast cancer cells, E2 (10 nM) was used to stimulate ER activity. Control medium without any steroid hormone was used as a control setting. After 4 days of incubation, cells were fixed and stained for 2 h with 0.5% methylene blue in 50% ethanol, followed by washing with tap water to remove unbound dye. Plates were air dried and then cells were dissolved in 1% sarkosyl (sodium lauroyl sarcosinate) by shaking at room temperature for 3 h. Cell growth was quantified based on the amount of methylene blue adsorbed by the cells as measured by a spectrophotometer (Molecular Devices) at 595 nm. All experiments were performed in triplicate wells and were repeated at least three times.

Sequence of AR (stimulated with DHT) (P10275 whole entry T878A): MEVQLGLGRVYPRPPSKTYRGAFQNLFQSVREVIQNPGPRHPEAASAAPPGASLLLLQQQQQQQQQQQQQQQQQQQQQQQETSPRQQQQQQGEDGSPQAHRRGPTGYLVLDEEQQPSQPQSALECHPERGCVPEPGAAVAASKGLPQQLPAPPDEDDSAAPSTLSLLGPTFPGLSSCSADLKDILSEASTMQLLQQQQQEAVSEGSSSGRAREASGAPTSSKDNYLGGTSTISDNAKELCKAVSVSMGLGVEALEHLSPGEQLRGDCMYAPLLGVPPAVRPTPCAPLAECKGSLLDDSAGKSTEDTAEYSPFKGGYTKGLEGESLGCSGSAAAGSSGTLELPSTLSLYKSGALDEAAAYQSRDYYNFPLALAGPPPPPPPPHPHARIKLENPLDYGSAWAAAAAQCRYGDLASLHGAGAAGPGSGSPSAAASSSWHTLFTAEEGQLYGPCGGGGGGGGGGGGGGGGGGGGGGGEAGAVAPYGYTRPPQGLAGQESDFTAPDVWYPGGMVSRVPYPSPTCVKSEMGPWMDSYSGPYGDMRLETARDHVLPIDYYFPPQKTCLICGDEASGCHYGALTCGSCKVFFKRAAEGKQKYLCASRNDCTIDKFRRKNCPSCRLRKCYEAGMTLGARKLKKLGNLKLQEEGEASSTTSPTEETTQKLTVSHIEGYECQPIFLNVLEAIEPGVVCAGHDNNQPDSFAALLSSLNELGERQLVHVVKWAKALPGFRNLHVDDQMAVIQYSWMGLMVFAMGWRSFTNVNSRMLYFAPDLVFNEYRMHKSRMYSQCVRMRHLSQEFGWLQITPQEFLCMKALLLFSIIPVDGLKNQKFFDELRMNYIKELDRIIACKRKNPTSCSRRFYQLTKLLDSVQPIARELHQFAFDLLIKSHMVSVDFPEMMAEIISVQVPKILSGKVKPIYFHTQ

Take `CC(=O)OCC1OC(Oc2cc3c(c(O)c2C)C(=O)c2ccc(O)cc2C3=O)C(OC2OC(C)C(O)C(O)C2O)C(O)C1O` [RGA, 1,3,6-Trihydroxy-2-methyl-9,10-anthracenedione 3-O-[α-L-Rhamnopyranosyl-(1→2)-6-O-acetyl-β-D-glucopyranoside]]: in assay [1], the PARP-1 protein expression entry is “downregulate”. Moreover, in assay [2], the “inhibition of DEX induced transcriptional response” value is on record as “effectively inhibit”. The “inhibitory effect on DEX induced transcriptional response” value in assay [3] is recorded as “inhibitory effect”. For the same compound, the “inhibition of growth of triple negative MDAMB-231 cells” value in assay [4] was “inhibited the growth”. The “inhibition of DEX induced SGK1 mRNA expression” value in assay [5] is given as “inhibited”. Also, the “inhibition of DHT induced transcriptional response” value in assay [6] is reported as “effectively inhibit”.

As to `Cc1c(OC2OC(CO)C(O)C(O)C2OC2OC(C)C(O)C(O)C2O)cc2c(c1O)C(=O)c1ccc(O)cc1C2=O` [RG, 1,3,6-Trihydroxy-2-methyl-9,10-anthracenedione 3-O-[α-L-Rhamnopyranosyl-(1→2)-β-D-glucopyranoside]], the “inhibition on the growth of MCF7 cells” value in assay [7] is reported as “very weak growth inhibition”. Further, in assay [8], the “inhibitory effect on cell growth (in words)” value is “did not any show inhibitory effect”.
